Where only a bound is given, the exact number is not on record here.

Among the data in patent US8563714B2, “Bridged spiro [2.4] heptane derivatives as ALX receptor and/or FPRL2 agonists” (Actelion Pharmaceuticals Ltd., priority 2009, dated 2013) are EC50 values, retold here.

Assay [1] concerns the target T1, human ALX receptor (Homo sapiens, UniProt P25090).
T1 construct: expressed in transfected cells; host or cells: HEK293 (HEK293-hALXR-Gα16)
T1 sequence (P25090 1-351): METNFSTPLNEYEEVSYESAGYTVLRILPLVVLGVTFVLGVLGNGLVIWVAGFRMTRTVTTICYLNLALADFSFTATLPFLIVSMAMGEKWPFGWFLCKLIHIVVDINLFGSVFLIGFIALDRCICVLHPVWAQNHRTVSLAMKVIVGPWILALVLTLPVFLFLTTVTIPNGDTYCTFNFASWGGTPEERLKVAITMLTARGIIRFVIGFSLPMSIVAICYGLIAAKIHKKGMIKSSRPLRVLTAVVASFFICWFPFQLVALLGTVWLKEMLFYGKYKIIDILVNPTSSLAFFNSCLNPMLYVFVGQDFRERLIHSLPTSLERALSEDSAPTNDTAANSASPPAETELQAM
Nature of the assay: Intracellular calcium measurements (FLIPR), agonistic activity in HEK293-hALXR-Gα16 cells. The assay is classed as cell-based. The following applies: Fluo-4 calcium FLIPR, normalized to WKYMVm 10 nM. In outline: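 HEK293 cells expressing hALXR and Gα16 were loaded with 1 μM Fluo-4 AM and 20 mM HEPES for 60 min at 37°C, then exposed to serially diluted compound. FLIPR fluorescence was read at ex 488/em 540 nm. Baseline-subtracted peak responses were normalized to 10 nM WKYMVm.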
In general terms: A change in cytosolic calcium serves as a functional read-out for many receptors and channels.

Assay [2] has as its target T2, human FPRL2 (Homo sapiens, UniProt P25089).
T2 construct: expressed in transfected cells; host or cells: HEK293 (HEK293-hFPRL2-Gα16)
T2 sequence (P25089 1-353): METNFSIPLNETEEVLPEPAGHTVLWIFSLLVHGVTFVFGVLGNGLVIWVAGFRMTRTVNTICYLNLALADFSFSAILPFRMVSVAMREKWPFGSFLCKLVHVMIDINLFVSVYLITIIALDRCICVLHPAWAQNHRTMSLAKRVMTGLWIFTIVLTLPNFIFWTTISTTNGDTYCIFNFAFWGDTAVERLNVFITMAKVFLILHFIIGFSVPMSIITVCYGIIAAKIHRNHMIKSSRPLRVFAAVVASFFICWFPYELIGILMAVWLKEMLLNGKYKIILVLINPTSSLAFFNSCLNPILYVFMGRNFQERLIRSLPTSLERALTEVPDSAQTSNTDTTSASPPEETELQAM
Briefly: Intracellular calcium measurements (FLIPR), agonistic activity in HEK293-hFPRL2-Gα16 cells. The assay is classed as cell-based. To be noted: Fluo-4 calcium FLIPR, normalized to GLY14-Humanin 100 nM. In outline: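 Peak values after baseline subtraction are expressed relative to 100 nM Gly14-Humanin; compounds diluted in assay buffer from 10 mM DMSO stocks.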

As for `O=C(NCCCCCN1CCCC1)[C@H]1[C@H](C(=O)Nc2ccc(Br)cc2)[C@@H]2C=C[C@H]1C21CC1` [Example 221, (5R)—N^5-(4-Bromophenyl)-(6R)—N^6-(5-pyrrolidino-pentyl)-(4S,7R)-[4,7-ethenylene-spiro[2.4]heptane]-5,6-dicarboxamide], the EC50 (as a rule, the concentration that produces a half-maximal response) stood at 0.66 nM in assay [1] and 41 nM in assay [2].

For `O=C(NCCCCN1CCCC1)[C@H]1[C@H](C(=O)Nc2ncc(Br)s2)[C@@H]2C=C[C@H]1C21CC1` [Example 225, (5R)—N^5-(5-Bromo-thiazol-2-yl)-(6R)—N^6-(4-pyrrolidin-1-yl-butyl)-(4S,7R)-[4,7-ethenylene-spiro[2.4]heptane]-5,6-dicarboxamide], the concentration for a half-maximal effect (EC50) in assay [1] came out at 6.4 nM; in assay [2], 143 nM.

Consider `O=C(NCCCCN1CCCC1)[C@H]1[C@H](C(=O)Nc2ncc(Br)s2)[C@@H]2CC[C@H]1C21CC1` [Example 238, (5R)—N^5-(5-Bromo-thiazol-2-yl)-(6R)—N^6-(4-pyrrolidin-1-yl-butyl)-(4S,7R)-[4,7-ethylene-spiro[2.4]heptane]-5,6-dicarboxamide], for which the EC50 in assay [1] came out at 22 nM; in assay [2] it was 142 nM.

As to `NC(=O)CCNC(=O)[C@H]1[C@H](C(=O)Nc2ncc(Br)s2)[C@@H]2CC[C@H]1C21CC1` [Example 239, (5R)—N^5-(5-Bromo-thiazol-2-yl)-(6R)—N^6-(3-amino-3-oxopropyl)-(4S,7R)-[4,7-ethylene-spiro[2.4]heptane]-5,6-dicarboxamide], the EC50 in assay [1] was 15 nM; in assay [2], above 25000 nM.

With `NC(=O)CCNC(=O)[C@H]1[C@H](C(=O)Nc2ncc(Br)s2)[C@@H]2C=C[C@H]1C21CC1` [Example 240, (5R)—N^5-(5-Bromo-thiazol-2-yl)-(6R)—N^6-(3-amino-3-oxopropyl)-(4S,7R)-[4,7-ethenylene-spiro[2.4]heptane]-5,6-dicarboxamide], the EC50 is 8.1 nM in assay [1] and above 25000 nM in assay [2].

Take `NC(=O)CCNC(=O)[C@H]1[C@H](C(=O)NCc2ccc(Br)cc2)[C@@H]2C=C[C@H]1C21CC1` [Example 241, (5R)—N^5-(4-Bromo-phenyl-methyl)-(6R)—N^6-(3-amino-3-oxopropyl)-(4S,7R)-[4,7-ethenylene-spiro[2.4]heptane]-5,6-dicarboxamide]: the EC50 was 240 nM in assay [1] and above 25000 nM in assay [2].

In the case of `NC(=O)CCNC(=O)[C@H]1[C@H](C(=O)Nc2ccc(Br)nc2)[C@@H]2C=C[C@H]1C21CC1` [Example 242, (5R)—N^5-(2-Bromo-pyrid-5-yl)-(6R)—N^6-(3-amino-3-oxopropyl)-(4S,7R)-[4,7-ethenylene-spiro[2.4]heptane]-5,6-dicarboxamide], the EC50 in assay [1] came to 5.9 nM; in assay [2], 6140 nM.

In the case of `CC(C)CNC(=O)C1C(C(=O)Nc2ncc(Br)s2)C2C=CC1C21CC1` (stereo not drawn) [Example 245, (5R*)—N^5-(5-Bromo-thiazol-2-yl)-(6R*)—N^6-(isobutyl)-(4S*,7R*)-[4,7-ethenylene-spiro[2.4]heptane]-5,6-dicarboxamide], the values for the concentration giving a half-maximal response (EC50) in assay [1] and in assay [2] were 3.9 nM and 8240 nM, respectively.

With `Cc1ccc(NC(=O)C2C(C(=O)NCCCCN3CCCC3)C3C=CC2C32CC2)cn1` (stereo not drawn) [Example 253, (5R*)—N^5-(2-Methyl-pyridin-5-yl)-(6R*)—N^6-(4-pyrrolidin-1-yl-butyl)-(4S*,7R*)-[4,7-ethenylene-spiro[2.4]heptane]-5,6-dicarboxamide], the 50% effective concentration (EC50) was determined as 131 nM in assay [1] and 1770 nM in assay [2].

Regarding `O=C(NCCCCN1CCCC1)[C@H]1[C@H](C(=O)Nc2ccc(Br)nc2)[C@@H]2C=C[C@H]1C21CC1` [Example 258, (5R)—N^5-(2-Bromo-pyridin-5-yl)-(6R)—N^6-(4-pyrrolidin-1-yl-butyl)-(4S,7R)-[4,7-ethenylene-spiro[2.4]heptane]-5,6-dicarboxamide], the EC50 in assay [1] is 1.1 nM; in assay [2] it was 173 nM.

As for `CCN(CC)CCCCNC(=O)C1C(C(=O)NCc2ccc(Br)cc2)C2C=CC1C21CC1` (stereo not drawn) [Example 272, (5R*)—N^5-(4-Bromophenyl-methyl)-(6R*)—N^6-(4-diethylamino-butyl)-(4S*,7R*)-[4,7-ethenylene-spiro[2.4]heptane]-5,6-dicarboxamide], the values for the EC50 in assay [1] and in assay [2] were 121 nM and 299 nM, respectively.

On to `NC(=O)CCNC(=O)[C@H]1[C@H](C(=O)Nc2ccc(Br)nc2)[C@@H]2CC[C@H]1C21CC1` [Example 278, (5R)—N^5-(2-Bromopyrid-5-yl)-(6R)—N^6-(3-amino-3-oxopropyl)-(4S,7R)-[4,7-ethylene-spiro[2.4]heptane]-5,6-dicarboxamide], for which the EC50 in assay [1] was 7.9 nM; in assay [2] it was above 25000 nM.

In the case of `O=C(NCCCCN1CCCC1)[C@H]1[C@H](C(=O)Nc2ccc(Br)nc2)[C@@H]2CC[C@H]1C21CC1` [Example 279, (5R)—N^5-(2-Bromopyrid-5-yl)-(6R)—N^6-(4-pyrrolidino-butyl)-(4S,7R)-[4,7-ethylene-spiro[2.4]heptane]-5,6-dicarboxamide], the concentration giving a half-maximal response (EC50) in assay [1] turned out to be 1.3 nM; in assay [2] it was 62 nM.

Turning to `NC(=O)CCNC(=O)[C@H]1[C@H](C(=O)Nc2ccc(Br)cn2)[C@@H]2C=C[C@H]1C21CC1` [Example 280, (5R)—N^5-(5-Bromopyrid-2-yl)-(6R)—N^6-(3-amino-3-oxopropyl)-(4S,7R)-[4,7-ethenylene-spiro[2.4]heptane]-5,6-dicarboxamide], the EC50 is 258 nM in assay [1] and above 25000 nM in assay [2].

With `NC(=O)CCNC(=O)[C@H]1[C@H](C(=O)Nc2ccc(Cl)nc2)[C@@H]2C=C[C@H]1C21CC1` [Example 281, (5R)—N^5-(2-Chloropyrid-5-yl)-(6R)—N^6-(3-amino-3-oxopropyl)-(4S,7R)-[4,7-ethenylene-spiro[2.4]heptane]-5,6-dicarboxamide], the EC50 is 31 nM in assay [1] and above 25000 nM in assay [2].

As to `NC(=O)CCNC(=O)[C@H]1[C@H](C(=O)NCc2ccc(Br)cc2F)[C@@H]2C=C[C@H]1C21CC1` [Example 282, (5R)—N^5-(4-Bromo-2-fluorophenyl-methyl)-(6R)—N^6-(3-amino-3-oxopropyl)-(4S,7R)-[4,7-ethenylene-spiro[2.4]heptane]-5,6-dicarboxamide], the values for the concentration for a half-maximal effect (EC50) in assay [1] and in assay [2] were 146 nM and above 25000 nM, respectively.

For `NC(=O)CCNC(=O)[C@H]1[C@H](C(=O)NCc2cnc(Br)s2)[C@@H]2C=C[C@H]1C21CC1` [Example 283, (5R)—N^5-(2-Bromothiazol-5-yl-methyl)-(6R)—N^6-(3-amino-3-oxopropyl)-(4S,7R)-[4,7-ethenylene-spiro[2.4]heptane]-5,6-dicarboxamide], the EC50 in assay [1] was 884 nM; in assay [2], above 25000 nM.

Take `O=C(NCCCCN1CCCC1)[C@H]1[C@H](C(=O)NCc2ccc(Br)cc2F)[C@@H]2C=C[C@H]1C21CC1` [Example 284, (5R)—N^5-(4-Bromo-2-fluorophenyl-methyl)-(6R)—N^6-(4-pyrrolidino-butyl)-(4S,7R)-[4,7-ethenylene-spiro[2.4]heptane]-5,6-dicarboxamide]: the EC50 in assay [1] came out at 13 nM; in assay [2], 264 nM.

Turning to `COc1ccc(NC(=O)[C@H]2[C@H](C(=O)NCCCCN3CCCC3)[C@H]3C=C[C@@H]2C32CC2)cc1` [Example 285, (5R)—N^5-(4-Methoxyphenyl)-(6R)—N^6-(4-pyrrolidino-butyl)-(4S,7R)-[4,7-ethenylene-spiro[2.4]heptane]-5,6-dicarboxamide], the concentration for a half-maximal effect (EC50) amounted to 9 nM in assay [1] and 224 nM in assay [2].

`O=C(NCCCCN1CCCC1)[C@H]1[C@H](C(=O)NCc2ccc(Br)cc2)[C@@H]2C=C[C@H]1C21CC1` [Example 286, (5R)—N^5-(4-Bromophenyl-methyl)-(6R)—N^6-(4-pyrrolidino-butyl)-(4S,7R)-[4,7-ethenylene-spiro[2.4]heptane]-5,6-dicarboxamide]: the 50% effective concentration (EC50) in assay [1] and in assay [2] was 32 nM throughout.

As for `COc1ccc(NC(=O)[C@H]2[C@H](C(=O)NCCC(=O)O)[C@H]3C=C[C@@H]2C32CC2)cc1` [Example 287, (5R)—N^5-(4-Methoxyphenyl)-(6R)—N^6-(3-hydroxyl-3-oxopropyl)-(4S,7R)-[4,7-ethenylene-spiro[2.4]heptane]-5,6-dicarboxamide], the EC50 is 516 nM in assay [1] and above 25000 nM in assay [2].

Consider `O=C(NCCCCN1CCCC1)[C@H]1[C@H](C(=O)Nc2ccc(Br)c(F)c2)[C@@H]2C=C[C@H]1C21CC1` [Example 288, (5R)—N^5-(4-Bromo-3-fluorophenyl)-(6R)—N^6-(4-pyrrolidino-butyl)-(4S,7R)-[4,7-ethenylene-spiro[2.4]heptane]-5,6-dicarboxamide], for which the EC50 in assay [1] worked out at 0.87 nM; in assay [2], 33 nM.
